Assays:
Type in all cases: in vivo, human
[1] = tested on: HLA-B27 associated reactive arthritis; assay: Example 4: patient with HLA-B27 associated reactive arthritis treated with oral budesonide; details: person
Protocol: (§1) The invention is illustrated by the following examples where budesonide is administered orally using the Entocort™ preparation as described in EP-A-502092.
wherein the Ritchie index is an alternative joint arthritic index.

[2] = tested on: ankylosing spondylitis; assay: Example 2: patient with ankylosing spondylitis treated with oral budesonide; details: person; for Outcome of previous treatment: ankylosing spondylitis for 12 years, treatment before budesonide
Protocol: as §1
The tests were carried out in the same way as in Example 1 except that the laboratory inflammatory activity was measured using the ESR (erythrocyte sedimentation rate) whose normal value is less than 5 mm/h and the C-reactive protein plasma concentration which is usually less than 10 mg/litre.

[3] = tested on: rheumatoid arthritis; assay: Example 7: patient with rheumatoid arthritis treated with oral budesonide; details: person, 9 mg per day, three weeks
Protocol: The invention is illustrated by the following examples where budesonide is administered orally using the Entocort™ preparation as described in EP-A-502092. A person had suffered from joint swelling and joint pains for about 5 months. At admittance they had symmetric swelling of finger joints, both knees and left ankle. They were on treatment with diclofenac. The rheumatoid factor test was positive and the diagnosis was rheumatoid arthritis. Diclofenac treatment was stopped and they were given 9 mg of budesonide per day.

[4] = tested on: rheumatoid arthritis; assay: Example 6: patient with rheumatoid arthritis treated with oral budesonide; details: person, 9 mg per day, follow-up 4 weeks
Protocol: as §1

[5] = tested on: rheumatoid arthritis; assay: Example 3: patient with rheumatoid arthritis treated with oral budesonide; details: person, 9 mg once a day, after 4 months
Protocol: The invention is illustrated by the following examples where budesonide is administered orally using the Entocort™ preparation as described in EP-A-502092. […] They were diagnosed as having rheumatoid arthritis. They were treated with 9 mg of budesonide once a day. The tests for the symptoms were carried out in the same way as in Examples 1 and 2.

[6] = tested on: HLA-B27 associated sacroiliitis with peripheral arthropathies; assay: Example 5: patient with HLA-B27 associated sacroiliitis with peripheral arthropathies treated with oral budesonide; details: for Outcome of previous treatment: sacroiliitis with peripheral arthropathies for 8 years, treatment before budesonide
Protocol: as §1
A patient had suffered from a HLA-B27 associated sacroiliitis with peripheral arthropathies for 8 years. […] At admittance to the hospital they suffered from direct pains of the sacroiliac joints and inflammation of the left knee and left ankle.

[7] = tested on: rheumatoid arthritis; assay: Example 8: patient with rheumatoid arthritis treated with oral budesonide; details: 9 mg once a day
Protocol: as §1
A person had for 2 months suffered from rapidly progressive inflammations of the finger joints of both hands (metacarpophalangeal joints, proximal interphalangeal joints) and the wrists. The diagnosis was rheumatoid arthritis.

[8] = tested on: sacroiliitis and peripheral oligoarthritis; assay: Example 1: patient with sacroiliitis and peripheral oligoarthritis treated with oral budesonide; details: person; for Outcome of previous treatment: sacroiliitis and peripheral oligoarthritis for over 7 years, treatment before budesonide
Protocol: as §1
They were initially treated with 9 mg of budesonide once a day for the first four weeks and then the dose was reduced to 6 mg per day.
The normal value of morning stiffness is 0 min. The joint arthritic index was measured using the Lansbury index whose normal value is 0. The spinal movement was measured using Shober's Test whose normal value is from 5 to 6 cm. The joint pain at rest and in motion was estimated using a VAS (visual analogue scale) where 0 represents no pain and 10 very severe pain.

[9] = 9 mg once a day, oral, one month after start, before treatment 8
[10] = person, oral, second follow-up three weeks after the first, before treatment 7

With `CCCC1O[C@@H]2C[C@H]3[C@@H]4CCC5=CC(=O)C=C[C@]5(C)[C@H]4[C@@H](O)C[C@]3(C)[C@]2(C(=O)CO)O1` (stereo partly shown) [budesonide] the Ritchie index ([1]; 9 mg once a day, oral, three weeks, before treatment 9) was 4, the Joint arthritic index ([1]; 9 mg once a day, oral, three weeks, before treatment 112) was 6 and the Morning stiffness ([1]; 9 mg once a day, oral, three weeks, before treatment 120) was 60 min. The “Spinal movement (Shober's Test)” value ([2]; 9 mg once a day, oral, one month after start, before treatment 2.5) was 3.5 cm, the “Joint pains at rest (VAS 0-10)” value [2, 9] was 1 and the “Joint pains in motion (VAS 0-10)” value [2, 9] was 1.7. The “ESR rate (erythrocyte sedimentation rate)” value ([2]; 9 mg once a day, oral, one month after start, before treatment 85, normal less than 5) was 30 mm/h, the “Joint arthritic index (Lansbury index)” value ([2]; 9 mg once a day, oral, one month after start, before treatment 127) was 80 and the “C-reactive protein plasma concentration” value ([2]; 9 mg once a day, oral, one month after start, before treatment 140, usually less than 10) was 25 mg/L. The Morning stiffness ([2]; 9 mg once a day, oral, one month after start, before treatment 270) was 0 min, the “Joint pains in motion (VAS 0-10)” value ([3]; before treatment 5) was 0/0 and the “Joint pains at rest (VAS 0-10)” value ([3]; before treatment 10) was 0/0. The Ritchie index ([3]; before treatment 19) was 5, the Joint arthritic index ([3]; before treatment 112) was 15 and the Morning stiffness ([3]; before treatment 210) was 15 min. The Ritchie index ([4]; before treatment 8) was 5, the Joint arthritic index ([4]; before treatment 64) was 0 and the Morning stiffness ([4]; before treatment 120) was 60 min. The C-reactive protein ([5]; before treatment 41) was 10 mg/L, the ESR rate ([5]; before treatment 70) was 16 mm/h and the Morning stiffness ([5]; before treatment 180) was 0 min. For the same compound, the “Joint arthritic index (Lansbury index)” value ([5]; before treatment 205) was 0, the “Duration of treatment until they started to improve” value ([6]; 9 mg per day) was 2 weeks and the Ritchie index ([6]; person, 9 mg per day, oral, 6 weeks after start, before treatment 3) was 0. For the same compound, the “Joint pains in motion (VAS 0-10)” value ([6]; person, 9 mg per day, oral, 6 weeks after start, before treatment 8) was 0/0, the “Joint pains at rest (VAS 0-10)” value ([6]; person, 9 mg per day, oral, 6 weeks after start, before treatment 9.5) was 0/0 and the Joint arthritic index ([6]; person, 9 mg per day, oral, 6 weeks after start, before treatment 127) was 0. The Morning stiffness ([6]; person, 9 mg per day, oral, 6 weeks after start, before treatment 180) was 0 min, the “Time until they started to feel better” value [7] was 14 days and the Ritchie index ([7]; person, oral, first follow-up three weeks after start, before treatment 16) was 2. For the same compound, the Joint arthritic index ([7]; person, oral, first follow-up three weeks after start, before treatment 90) was 0, the “Joint pains at rest (VAS 0-10)” value [7, 10] was 1/1 and the “Joint pains in motion (VAS 0-10)” value [7, 10] was 1/1. For the same compound, the “Spinal movement (Shober's Test)” value ([8]; 9 mg once a day four weeks then 6 mg per day, oral, after 2 months, before treatment 1, normal 5 to 6) was 4 cm, the “Joint pains at rest (VAS 0-10)” value ([8]; 9 mg once a day four weeks then 6 mg per day, oral, after 2 months, before treatment 5) was 1.5/1.5 and the “Joint pains in motion (VAS 0-10)” value ([8]; 9 mg once a day four weeks then 6 mg per day, oral, after 2 months, before treatment 9.5) was 1.5/1.5. For the same compound, the Morning stiffness ([8]; 9 mg once a day four weeks then 6 mg per day, oral, after 2 months, before treatment 120, normal 0) was 20 min and the “Joint arthritic index (Lansbury index)” value ([8]; 9 mg once a day four weeks then 6 mg per day, oral, after 2 months, before treatment 127, normal 0) was 0.
For `CN(Cc1cnc2nc(N)nc(N)c2n1)c1ccc(C(=O)N[C@@H](CCC(=O)O)C(=O)O)cc1` [methotrexate], the “Outcome of previous treatment” value [2] was “without success”, the “Outcome of previous treatment” value ([6]; person) was “without any apparent disease-modifying effect” and the “Outcome of previous treatment” value [8] was “without success”.
In the case of `C[C@]12C=CC(=O)C=C1CC[C@@H]1[C@@H]2[C@@H](O)C[C@@]2(C)[C@H]1CC[C@]2(O)C(=O)CO` [prednisolone], the “Outcome of previous treatment” value ([1]; reactive arthritis, treatment before budesonide) is reported as “some relief of the joint pains”, the “Outcome of previous treatment” value ([6]; person) is reported as “without any apparent disease-modifying effect” and the “Outcome of previous treatment” value [8] is reported as “without success”.
For `O=C(O)c1cc(/N=N/c2ccc(S(=O)(=O)Nc3ccccn3)cc2)ccc1O` [sulphasalazine], the “Outcome of previous treatment” value [2] was “without success” and the “Outcome of previous treatment” value ([6]; person) was “without any apparent disease-modifying effect”.
